What was measured:
NDR1 = NDR1 (Homo sapiens, UniProt Q15208); assay: KiNativ, OCI cells live cell; type: cell-based; details: 2 h
PRP4 = PRP4 (Homo sapiens, UniProt Q13523); assay: KiNativ, OCI cells live cell; type: cell-based; details: 2 h, labeling site Lys2, peptide […]
JAK1 domain1 = target: T1, JAK1 domain1 (Homo sapiens, UniProt P23458); assay: KiNativ, OCI cells live cell; type: cell-based; details: labeling site Activation Loop, peptide QLASALSYLEDKDLVHGNVCTKNLLLAR
T1 construct: JAK1 domain1

FES = FES (Homo sapiens, UniProt P07332); assay: KiNativ, OCI cells live cell; type: cell-based; details: 2 h, labeling site Lys1, peptide […]
MST1, MST2 = assay: KiNativ, OCI cells live cell; type: cell-based, human; details: labeling site Lys2, peptide DIKAGNILLNTEGHAK
FLT3 D835Y = target: T2, FLT3 D835Y (Homo sapiens, UniProt P36888, D835Y); assay: KdELECT binding assay
T2 construct: purchased Eurofins DiscoverX

CDK7 = CDK7 (Homo sapiens, UniProt P50613); assay: KdELECT binding assay; parameters: purchased Eurofins DiscoverX
Chain of CDK7 (P50613 whole entry): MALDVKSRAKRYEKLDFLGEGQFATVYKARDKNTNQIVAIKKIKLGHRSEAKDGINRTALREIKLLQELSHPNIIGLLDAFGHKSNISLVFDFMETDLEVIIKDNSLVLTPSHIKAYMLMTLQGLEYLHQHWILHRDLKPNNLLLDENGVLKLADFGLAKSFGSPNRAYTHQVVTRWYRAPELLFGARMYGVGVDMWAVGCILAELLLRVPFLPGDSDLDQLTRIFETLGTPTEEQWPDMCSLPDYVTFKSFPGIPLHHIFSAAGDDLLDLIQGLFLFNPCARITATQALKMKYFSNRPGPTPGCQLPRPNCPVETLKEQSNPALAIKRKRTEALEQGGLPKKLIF

MAP3K2, MAP3K3 = assay: KiNativ, OCI cells live cell; type: cell-based, human; details: labeling site Lys2, peptide DIKGANILR
RAF1 = RAF1 (Homo sapiens, UniProt P04049); assay: KiNativ, OCI cells live cell; type: cell-based; details: 2 h, labeling site Lys2, peptide […]
AurA = target: T3, AurA (Homo sapiens, UniProt O14965); assay: KiNativ, OCI cells live cell; type: cell-based; details: 2 h
T3 sequence (O14965 1-403): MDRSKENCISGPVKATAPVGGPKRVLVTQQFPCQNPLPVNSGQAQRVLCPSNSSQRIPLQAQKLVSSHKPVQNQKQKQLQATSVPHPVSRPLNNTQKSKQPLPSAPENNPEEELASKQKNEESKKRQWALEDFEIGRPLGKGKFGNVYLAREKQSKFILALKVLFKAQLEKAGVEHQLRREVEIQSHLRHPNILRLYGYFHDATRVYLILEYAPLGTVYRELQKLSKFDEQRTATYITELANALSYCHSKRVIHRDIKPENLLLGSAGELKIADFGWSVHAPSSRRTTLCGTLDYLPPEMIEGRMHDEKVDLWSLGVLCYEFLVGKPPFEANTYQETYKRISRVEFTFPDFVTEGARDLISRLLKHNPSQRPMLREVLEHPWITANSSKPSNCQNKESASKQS

PIK3CD = PIK3CD (Homo sapiens, UniProt O00329); assay: KiNativ, OCI cells live cell; type: cell-based; details: 2 h, labeling site ATP, peptide […]
RSK1 domain1 = target: T4, RSK1 domain1 (Homo sapiens, UniProt Q15418); assay: KiNativ, OCI cells live cell; type: cell-based; details: 2 h
T4 construct: RSK1 domain1
T4 sequence (Q15418 whole entry, the tested form may be a part): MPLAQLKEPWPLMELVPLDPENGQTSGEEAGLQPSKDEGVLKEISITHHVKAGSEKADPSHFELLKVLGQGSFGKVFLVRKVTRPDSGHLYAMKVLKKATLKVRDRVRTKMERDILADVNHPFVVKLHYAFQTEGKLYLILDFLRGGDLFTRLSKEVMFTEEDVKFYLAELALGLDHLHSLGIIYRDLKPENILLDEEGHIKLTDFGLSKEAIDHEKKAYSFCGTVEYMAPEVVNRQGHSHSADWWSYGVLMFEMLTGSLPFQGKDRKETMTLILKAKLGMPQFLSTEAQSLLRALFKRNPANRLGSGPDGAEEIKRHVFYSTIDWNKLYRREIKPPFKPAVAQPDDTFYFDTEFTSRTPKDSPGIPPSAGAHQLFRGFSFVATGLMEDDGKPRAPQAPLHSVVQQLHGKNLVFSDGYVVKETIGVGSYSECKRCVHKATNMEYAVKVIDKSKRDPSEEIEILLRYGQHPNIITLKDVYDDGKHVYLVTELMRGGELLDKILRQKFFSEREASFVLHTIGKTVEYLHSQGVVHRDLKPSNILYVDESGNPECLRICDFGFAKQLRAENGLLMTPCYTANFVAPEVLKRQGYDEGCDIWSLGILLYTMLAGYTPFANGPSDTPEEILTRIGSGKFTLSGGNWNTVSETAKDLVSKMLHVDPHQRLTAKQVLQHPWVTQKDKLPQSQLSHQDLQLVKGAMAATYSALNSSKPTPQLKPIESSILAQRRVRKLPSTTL

ZAK = ZAK (Homo sapiens, UniProt Q9NYL2); assay: KiNativ, OCI cells live cell; type: cell-based; details: 2 h, labeling site Lys1, peptide […]
MERTK = target: T5, MERTK (Homo sapiens, UniProt Q12866); assay: KdELECT binding assay
T5 construct: purchased Eurofins DiscoverX

MAP3K4 = MAP3K4 (Homo sapiens, UniProt Q9Y6R4); assay: KiNativ, OCI cells live cell; type: cell-based; details: 2 h
Chain of MAP3K4 (Q9Y6R4 whole entry): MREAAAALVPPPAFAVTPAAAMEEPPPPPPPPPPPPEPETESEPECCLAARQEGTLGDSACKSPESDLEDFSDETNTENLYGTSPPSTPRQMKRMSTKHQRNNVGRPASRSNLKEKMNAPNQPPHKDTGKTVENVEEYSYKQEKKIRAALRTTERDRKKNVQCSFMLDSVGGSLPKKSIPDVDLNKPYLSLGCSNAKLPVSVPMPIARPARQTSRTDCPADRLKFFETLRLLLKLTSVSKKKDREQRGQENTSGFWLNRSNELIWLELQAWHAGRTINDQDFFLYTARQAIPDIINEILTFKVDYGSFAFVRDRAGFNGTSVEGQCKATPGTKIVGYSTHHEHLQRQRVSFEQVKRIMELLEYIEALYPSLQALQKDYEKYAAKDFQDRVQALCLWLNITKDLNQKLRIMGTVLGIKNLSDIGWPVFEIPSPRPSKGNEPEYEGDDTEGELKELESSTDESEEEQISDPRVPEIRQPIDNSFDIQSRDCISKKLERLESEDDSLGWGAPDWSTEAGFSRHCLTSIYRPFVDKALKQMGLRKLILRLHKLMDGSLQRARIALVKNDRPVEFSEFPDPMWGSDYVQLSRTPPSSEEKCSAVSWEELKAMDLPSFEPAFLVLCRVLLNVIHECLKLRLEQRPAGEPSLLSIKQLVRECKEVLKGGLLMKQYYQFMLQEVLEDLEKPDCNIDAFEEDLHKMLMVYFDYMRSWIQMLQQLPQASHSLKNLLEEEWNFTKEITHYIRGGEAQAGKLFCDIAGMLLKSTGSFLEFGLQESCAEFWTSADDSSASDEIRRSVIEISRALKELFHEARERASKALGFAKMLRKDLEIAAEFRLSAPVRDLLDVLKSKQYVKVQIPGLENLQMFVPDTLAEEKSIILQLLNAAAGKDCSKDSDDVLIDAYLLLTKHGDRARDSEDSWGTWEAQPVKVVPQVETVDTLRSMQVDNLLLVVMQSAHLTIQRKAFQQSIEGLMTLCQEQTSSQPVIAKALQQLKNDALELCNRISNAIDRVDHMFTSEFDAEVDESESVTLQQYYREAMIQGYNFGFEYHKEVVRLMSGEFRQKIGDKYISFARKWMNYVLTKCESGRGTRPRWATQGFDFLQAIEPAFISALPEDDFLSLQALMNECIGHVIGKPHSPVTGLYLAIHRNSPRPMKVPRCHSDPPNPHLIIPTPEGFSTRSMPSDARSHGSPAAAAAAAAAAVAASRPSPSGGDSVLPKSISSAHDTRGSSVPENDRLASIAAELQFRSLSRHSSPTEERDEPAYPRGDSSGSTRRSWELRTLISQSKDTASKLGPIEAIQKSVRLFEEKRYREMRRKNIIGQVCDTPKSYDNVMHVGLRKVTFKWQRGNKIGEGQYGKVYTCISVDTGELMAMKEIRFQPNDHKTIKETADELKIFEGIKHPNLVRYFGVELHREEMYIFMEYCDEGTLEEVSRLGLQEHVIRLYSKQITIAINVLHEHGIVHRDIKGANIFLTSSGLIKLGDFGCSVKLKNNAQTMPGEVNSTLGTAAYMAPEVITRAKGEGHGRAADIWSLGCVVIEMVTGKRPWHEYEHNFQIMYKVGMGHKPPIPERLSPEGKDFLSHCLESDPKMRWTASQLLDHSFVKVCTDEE

ACK1 = ACK1 (Homo sapiens, UniProt Q07912); assay: KdELECT binding assay; parameters: purchased Eurofins DiscoverX
FAM20B = FAM20B (Homo sapiens, UniProt O75063); assay: KiNativ, OCI cells live cell; type: cell-based; details: 2 h, labeling site ATP, peptide […]
Chain of FAM20B (O75063 whole entry, the tested form may be a part): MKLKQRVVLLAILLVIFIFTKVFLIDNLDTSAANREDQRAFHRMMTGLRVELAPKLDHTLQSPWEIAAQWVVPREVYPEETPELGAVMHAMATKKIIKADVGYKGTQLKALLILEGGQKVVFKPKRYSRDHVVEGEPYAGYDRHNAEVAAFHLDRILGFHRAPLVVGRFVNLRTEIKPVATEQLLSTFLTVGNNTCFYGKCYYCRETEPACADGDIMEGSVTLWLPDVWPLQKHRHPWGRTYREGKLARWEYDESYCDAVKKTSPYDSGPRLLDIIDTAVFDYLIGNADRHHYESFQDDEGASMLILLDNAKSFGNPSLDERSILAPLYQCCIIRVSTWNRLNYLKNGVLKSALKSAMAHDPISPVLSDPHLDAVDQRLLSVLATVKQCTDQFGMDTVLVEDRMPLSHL

JAK2 domain2 = target: T6, JAK2 domain2 (Homo sapiens, UniProt O60674); assay: KiNativ, OCI cells live cell; type: cell-based; details: labeling site Activation Loop, peptide IGDFGLTKVLPQDKEYYK
T6 construct: JAK2 domain2

p70S6Kb = p70S6Kb (Homo sapiens, UniProt Q9UBS0); assay: KiNativ, OCI cells live cell; type: cell-based; details: 2 h
Chain of p70S6Kb (Q9UBS0 whole entry): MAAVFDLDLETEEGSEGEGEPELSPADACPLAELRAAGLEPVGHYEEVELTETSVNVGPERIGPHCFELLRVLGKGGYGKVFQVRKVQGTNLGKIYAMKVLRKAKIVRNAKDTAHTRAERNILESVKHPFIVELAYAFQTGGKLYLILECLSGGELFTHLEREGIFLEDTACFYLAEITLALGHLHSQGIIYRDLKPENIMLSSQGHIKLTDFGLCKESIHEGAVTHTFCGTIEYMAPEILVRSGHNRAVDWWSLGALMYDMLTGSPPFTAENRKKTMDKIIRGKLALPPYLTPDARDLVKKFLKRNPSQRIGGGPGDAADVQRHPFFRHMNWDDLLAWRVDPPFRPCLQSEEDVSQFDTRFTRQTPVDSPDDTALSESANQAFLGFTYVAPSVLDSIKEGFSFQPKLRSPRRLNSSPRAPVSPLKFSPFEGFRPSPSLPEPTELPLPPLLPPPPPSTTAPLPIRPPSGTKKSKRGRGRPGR

BTK = BTK (Homo sapiens, UniProt Q06187); assay: KiNativ, OCI cells live cell; type: cell-based; details: labeling site Activation Loop, peptide YVLDDEYTSSVGSKFPVR
MAP3K15, MAP3K5, MAP3K6 = assay: KiNativ, OCI cells live cell; type: cell-based, human; details: labeling site Lys1, peptide IAIKEIPER
PKN1 = PKN1 (Homo sapiens, UniProt Q16512); assay: KiNativ, OCI cells live cell; type: cell-based; details: 2 h
Chain of PKN1 (Q16512 whole entry): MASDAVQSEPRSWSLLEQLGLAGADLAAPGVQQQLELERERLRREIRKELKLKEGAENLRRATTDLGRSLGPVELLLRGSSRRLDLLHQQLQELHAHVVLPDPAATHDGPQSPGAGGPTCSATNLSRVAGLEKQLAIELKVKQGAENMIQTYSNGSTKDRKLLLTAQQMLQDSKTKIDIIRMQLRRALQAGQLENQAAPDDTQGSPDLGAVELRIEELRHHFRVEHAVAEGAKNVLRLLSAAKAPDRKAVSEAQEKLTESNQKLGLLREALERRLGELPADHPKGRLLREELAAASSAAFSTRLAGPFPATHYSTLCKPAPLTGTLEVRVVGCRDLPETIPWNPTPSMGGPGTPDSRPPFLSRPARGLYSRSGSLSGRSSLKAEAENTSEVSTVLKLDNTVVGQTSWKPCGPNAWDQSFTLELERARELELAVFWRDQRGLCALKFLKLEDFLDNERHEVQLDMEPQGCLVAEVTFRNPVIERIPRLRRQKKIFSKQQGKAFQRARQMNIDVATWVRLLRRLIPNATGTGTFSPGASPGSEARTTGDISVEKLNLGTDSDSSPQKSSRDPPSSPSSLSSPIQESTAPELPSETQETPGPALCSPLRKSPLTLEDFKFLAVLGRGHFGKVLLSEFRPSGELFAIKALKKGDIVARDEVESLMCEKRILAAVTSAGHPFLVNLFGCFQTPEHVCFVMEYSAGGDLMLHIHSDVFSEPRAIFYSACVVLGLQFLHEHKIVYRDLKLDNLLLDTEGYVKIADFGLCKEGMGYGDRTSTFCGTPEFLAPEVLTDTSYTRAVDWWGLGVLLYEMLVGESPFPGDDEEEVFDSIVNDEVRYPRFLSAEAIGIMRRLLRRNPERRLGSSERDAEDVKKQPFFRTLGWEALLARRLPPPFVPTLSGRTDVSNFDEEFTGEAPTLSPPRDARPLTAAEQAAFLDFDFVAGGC

GSK3A = GSK3A (Homo sapiens, UniProt P49840); assay: KiNativ, OCI cells live cell; type: cell-based; details: 2 h, labeling site Lys2, peptide […]
NEK8 = NEK8 (Homo sapiens, UniProt Q86SG6); assay: KiNativ, OCI cells live cell; type: cell-based; details: 2 h, labeling site Lys2, peptide […]
FGR = FGR (Homo sapiens, UniProt P09769); assay: KiNativ, OCI cells live cell; type: cell-based; details: 2 h, labeling site Activation Loop, peptide […]
FLT3 ITD = FLT3 ITD (Homo sapiens, UniProt P36888, ITD); assay: KdELECT binding assay

Chain of NDR1 (Q15208 whole entry): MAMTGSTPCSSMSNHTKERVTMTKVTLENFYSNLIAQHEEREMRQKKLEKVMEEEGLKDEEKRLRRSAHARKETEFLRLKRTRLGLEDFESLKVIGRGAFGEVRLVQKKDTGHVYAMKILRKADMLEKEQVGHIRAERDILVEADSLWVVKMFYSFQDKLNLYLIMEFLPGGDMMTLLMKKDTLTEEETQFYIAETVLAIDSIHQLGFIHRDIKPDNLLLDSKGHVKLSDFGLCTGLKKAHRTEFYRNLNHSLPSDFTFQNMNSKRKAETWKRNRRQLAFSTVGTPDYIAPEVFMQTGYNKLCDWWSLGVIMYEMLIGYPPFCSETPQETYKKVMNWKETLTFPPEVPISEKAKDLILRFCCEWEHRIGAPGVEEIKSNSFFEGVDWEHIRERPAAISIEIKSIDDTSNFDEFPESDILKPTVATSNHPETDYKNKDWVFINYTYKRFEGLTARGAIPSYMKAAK

With `CN1CCN(Cc2ccc(Nc3ncc(Cl)c(Nc4ccccc4S(=O)(=O)N(C)C)n3)cc2)CC1` [TP-0903] the inhibition at 0.1 µM (NDR1; labeling site Lys1, peptide DTGHVYAMKILR) was 12.3%, the inhibition at 0.1 µM (NDR1; labeling site Lys2, peptide DIKPDNLLLDSK) was -7.7% and the inhibition at 0.1 µM (PRP4) was -18.7%. The Inhibition (JAK1 domain1) was 87.3%, the inhibition at 0.1 µM (FES) was 47.3% and the Inhibition (MST1, MST2) was 35.6%. For the same compound, the Kd (FLT3 D835Y) was 1.4 nM, the Kd (CDK7) was less than 5 nM and the Inhibition (MAP3K2, MAP3K3) was 21.4%. The inhibition at 0.1 µM (RAF1) was 7%, the inhibition at 0.1 µM (AurA; labeling site Lys1, peptide FILALKVLFK) was 89.9% and the inhibition at 0.1 µM (AurA; labeling site Lys2, peptide DIKPENLLLGSAGELK) was 90.7%. For the same compound, the inhibition at 0.1 µM (PIK3CD) was -5.6%, the inhibition at 0.1 µM (RSK1 domain1; labeling site Activation Loop, peptide LTDFGLSKEAIDHEKK) was 44.9% and the inhibition at 0.1 µM (RSK1 domain1; labeling site Lys1, peptide KVTRPDSGHLYAMKVLK) was 42.9%. For the same compound, the inhibition at 0.1 µM (ZAK) was 5.3%, the Kd (MERTK) was less than 5 nM and the inhibition at 0.1 µM (MAP3K4; labeling site Lys1, peptide VYTCISVDTGELMAMKEIR) was 2.7%. The inhibition at 0.1 µM (MAP3K4; labeling site Lys2, peptide DIKGANIFLTSSGLIK) was 24.7%, the Kd (ACK1) was 7.3 nM and the inhibition at 0.1 µM (FAM20B) was 7.4%. It also gave an Inhibition (JAK2 domain2) of 36.2%, an inhibition at 0.1 µM (p70S6Kb; labeling site Lys1, peptide IYAMKVLR) of -2.8% and an inhibition at 0.1 µM (p70S6Kb; labeling site Lys2, peptide DLKPENIMLSSQGHIK) of -18.3%. The Inhibition (BTK) was 57.3%, the Inhibition (MAP3K15, MAP3K5, MAP3K6) was -14.4% and the inhibition at 0.1 µM (PKN1; labeling site Lys1, peptide VLLSEFRPSGELFAIKALK) was 63.2%. The inhibition at 0.1 µM (PKN1; labeling site Lys2, peptide DLKLDNLLLDTEGYVK) was 33.7%, the inhibition at 0.1 µM (GSK3A) was 22.6% and the inhibition at 0.1 µM (NEK8) was -6.8%. The inhibition at 0.1 µM (FGR) was 9.5% and the Kd (FLT3 ITD) was 5.6 nM.

— PMC7714403 (JCI Insight, 2020)
